One assay concerns m-IMCD3 cells. Description: Inhibition of PGE2-stimulated in vitro cyst formation in m-IMCD3 cells. The format is cell-based, mouse. As to conditions: Mus musculus, mIMCD3, 144 h, mean cyst area, 100% for (DMSO + PGE2) and 0% for DMSO control, 6 days of culture; for activity at 10 µM: read-out: % Cyst area after incubation with 10 μM test compound; for activity at 3 µM: read-out: % Cyst area after incubation with 3 μM test compound. Put shortly:
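m-IMCD3 cells embedded in collagen I/Matrigel 3D culture; 18–24 h after plating, compound (0.1% DMSO final) plus PGE2 (100 nM final) added, replenished after 2 or 3 days. After 6 days, z-stack imaging gave mean cyst area, normalized to DMSO+PGE2 (100%) and DMSO (0%).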

For assay [1], the system named is m-IMCD3 cells expressing PDE4 long forms. In words: cAMP levels in PGE2-stimulated 3D m-IMCD3 cell culture media. The format is cell-based. As to conditions: Mus musculus, mIMCD3, compared to 100% for (DMSO + PGE2), read-out: cAMP level (% of PGE2-stimulated); for activity at 3 µM: 3 μM test compound. The protocol:
HEK 293 and MDCK cells (Public Health England, Cell Culture Collections) were maintained in Dulbecco's Modified Eagle's Medium (DMEM) supplemented with 10% (v/v) fetal bovine serum (FBS) (Seralab), 2 mM L-glutamine and 100 U/mL penicillin streptomycin cocktail (ThermoFisher); termed complete media. Clonal HEK 293 cell lines were maintained in complete media supplemented with 0.6 mg/ml G418 (Enzo Life Sciences). Mouse inner medullary collecting duct (m-IMCD3) cells [American Type Culture Collection (ATCC)] were maintained in media consisting of DMEM/Hams F-12 50/50 Mix (DMEM F12; Corning) supplemented with penicillin streptomycin cocktail (100 U/mL) and FBS (10% v/v) (DMEM F12-10% FBS).
Activation of intracellular PDE4 long forms leads to a reduction of both intracellular cAMP and externalised cAMP (Omar et al., PNAS 116: 13320-13329, 2019). This reduction may be measured in the cell culture media supernatant of 3D cystic cell cultures, such as in the m-IMCD3 cell cyst suppression assay described in Experiment 3.
Following the completion of the m-IMCD3 cell cyst suppression assay (Experiment 3), the cAMP level in the assay media from individual or pooled assay wells was measured using a cAMP ELISA kit (Enzo Life Sciences) or a LANCE Ultra cAMP kit (PerkinElmer) according to the manufacturer's instructions.
In general terms: Cyclic AMP is a second messenger, typically raised through Gs and lowered through Gi signalling.

This is an account of results in patent US20250388604A1, “Compounds and Their Use as PDE4 Activators” (Mironid Limited, priority 2022, published 2025).

Molecules are shown by their SMILES.

As to `CC(C)(C)CC(=O)N1CCc2nc(N3C4CCC3CNC4)sc2C1` [Example 10, 1-(2-(3,8-diazabicyclo[3.2.1]octan-8-yl)-6,7-dihydrothiazolo[5,4-c]pyridin-5(4H)-yl)-3,3-dimethylbutan-1-one], the activity at 10 µM in the assay on m-IMCD3 cells was -3%; in assay [1] (10 μM test compound), 38%.

With `CCN1CCN(c2nc3c(s2)CN(S(=O)(=O)Cc2ccc(F)cc2)CC3)CC1` [Example 304, 2-(4-ethylpiperazin-1-yl)-5-((4-fluorobenzyl)sulfonyl)-4,5,6,7-tetrahydrothiazolo[5,4-c]pyridine], the activity at 3 µM is 13% in the assay with m-IMCD3 cells and 47% in assay [1].

As for `CC(C)N1CC2CCC(C1)N2c1nc2c(s1)CN(C(=O)COc1ccc(F)cc1)CC2` [Example 298, 2-(4-fluorophenoxy)-1-(2-(3-isopropyl-3,8-diazabicyclo[3.2.1]octan-8-yl)-6,7-dihydrothiazolo[5,4-c]pyridin-5(4H)-yl)ethan-1-one], the activity at 3 µM was -7% in the assay with m-IMCD3 cells and 48% in assay [1].

Take `CCN1CC2CCC(C1)N2c1nc2c(s1)CN(C(=O)CC1CCCC1)CC2` [Example 291, 2-cyclopentyl-1-(2-(3-ethyl-3,8-diazabicyclo[3.2.1]octan-8-yl)-6,7-dihydrothiazolo[5,4-c]pyridin-5(4H)-yl)ethan-1-one]: the activity at 3 µM with m-IMCD3 cells was 3%; in assay [1] it was 45%.

For the molecule `O=C(N[C@H]1CCOc2ccccc21)N1CCc2nc(N3C4CCC3CNC4)sc2C1` [Example 293, 2-(3,8-diazabicyclo[3.2.1]octan-8-yl)-N—((S)-chroman-4-yl)-6,7-dihydrothiazolo[5,4-c]pyridine-5(4H)-carboxamide], the activity at 3 µM with m-IMCD3 cells is 4%; in assay [1], 36%.

For `O=C(CC1CCCC1)N1CCc2nc(C3CCNCC3)sc2C1` [Example 118, 2-cyclopentyl-1-(2-(piperidin-4-yl)-6,7-dihydrothiazolo[5,4-c]pyridin-5(4H)-yl)ethan-1-one], in the assay on m-IMCD3 cells, the activity at 10 µM came to 5%. In assay [1], the activity at 3 µM stood at 52%.

For `O=C(CC1CCCC1)N1CCc2nc(N3CC4CCCC(C3)N4)sc2C1` [Example 280, 1-(2-(3,9-diazabicyclo[3.3.1]nonan-3-yl)-6,7-dihydrothiazolo[5,4-c]pyridin-5(4H)-yl)-2-cyclopentylethan-1-one], the values for the activity at 3 µM (with m-IMCD3 cells; in assay [1]) were -10% and 33%, respectively.

Consider `CC(C)(C)CC(=O)N1CCc2sc(N3C4CCC3CNC4)nc2C1` [Example 282, 1-(2-(3,8-diazabicyclo[3.2.1]octan-8-yl)-6,7-dihydrothiazolo[4,5-c]pyridin-5(4H)-yl)-3,3-dimethylbutan-1-one], for which the activity at 3 µM in the assay with m-IMCD3 cells stood at 3%; in assay [1], 35%.

Take `O=C(c1ccc(C(F)(F)F)nc1)N1CCc2nc(N3C4CCC3CNC4)sc2C1` [Example 241, (2-(3,8-diazabicyclo[3.2.1]octan-8-yl)-6,7-dihydrothiazolo[5,4-c]pyridin-5(4H)-yl)(6-(trifluoromethyl)pyridin-3-yl)methanone]: the activity at 3 µM in the assay with m-IMCD3 cells amounted to 4%; in assay [1] it was 43%.

Consider `O=C(CC1CCCC1)N1Cc2nc(N3C4CCC3CNC4)sc2C1` [Example 66, 1-(2-(3,8-diazabicyclo[3.2.1]octan-8-yl)-4,6-dihydro-5H-pyrrolo[3,4-d]thiazol-5-yl)-2-cyclopentylethan-1-one], for which the activity at 10 µM in the assay with m-IMCD3 cells is -5%. Besides, the activity at 3 µM in assay [1] was found to be 36%.

For the molecule `CCN1CC2CCC(C1)N2c1nc2c(s1)CN(C(=O)COc1ccc(F)cc1)CC2` [Example 302, 1-(2-(3-ethyl-3,8-diazabicyclo[3.2.1]octan-8-yl)-6,7-dihydrothiazolo[5,4-c]pyridin-5(4H)-yl)-2-(4-fluorophenoxy)ethan-1-one], the activity at 3 µM was determined as 5% in the assay with m-IMCD3 cells and 48% in assay [1].

In the case of `O=C(OC1CCCC1)N1CCc2nc(N3C4CCC3CNC4)sc2C1` [Example 244, cyclopentyl 2-(3,8-diazabicyclo[3.2.1]octan-8-yl)-6,7-dihydrothiazolo[5,4-c]pyridine-5(4H)-carboxylate], the values for the activity at 3 µM (in the assay with m-IMCD3 cells; in assay [1]) were 6% and 40%, respectively.
